Experimental data published in patent US20080166805A1, “Culturing human cells and tissues in an N-glycolylneuraminic acid-free environment” (The Regents of the University of California, priority 2005, published 2008).

Tests used:
[1] = system: human neuroblastoma cells; assay: Neu5Gc feeding experiment, human neuroblastoma cells; format: cell-based; settings: neuroblastoma cells fed 3 mM for 3 days
Description: (§1) Neu5Gc and ManNGc Feeding Experiment—Neu5Ac, Neu5Gc or ManNGc were dried, dissolved in the appropriate media supplemented with heat-inactivated human serum, sterilized using a Spin-X® (Corning Inc., Corning, N.Y.) and then added to the cells. The pH of the media containing Sia was adjusted to neutrality using sterilized 1M NaOH before starting the feeding experiment. Cells were cultured in the presence of up to 3 mM free Sia or ManNGc for 1 or 3 days at 37° C. At the end of the feeding, cells were washed with cold PBS, harvested either by scraping or with 2 mM EDTA for fibroblasts, and washed again with cold PBS prior to fractionation.
Fractionation of the Labeled Cells—Washed cell pellets were sonicated into 500 μL of 20 mM sodium phosphate buffer or 20 mM Tris-HCl, pH 7.5, using 4×15 second pulses of a sonicator cell disrupter, model Some Dismembrator (Fisher Scientific, Hampton, N.J.) at a probe setting of 3. […] The pellet contained <5% of the incorporated sialic acid as determined using a radioactive tracer (data not shown.) The supernatant was therefore considered as the “total homogenate” fraction. A portion (20%) of the “total homogenate” fraction was taken for protein quantification and Sia analysis by DMB derivatization and HPLC analysis (as discussed below.) The remainder was centrifuged at 100,000×g for 1 h. […]

[2] = system: chimpanzee lymphoblasts; assay: Neu5Gc/Neu5Ac feeding experiment, chimpanzee EBV-transformed lymphoblasts; format: cell-based; settings: chimpanzee lymphoblasts fed 3 mM for 3 days
Description: (§2) Cell Culture—Caco-2 cells were propagated in alpha-MEM containing GLUTAMAX™ (Invitrogen, San Diego, Calif.) and a mixture of ribonucleosides and deoxyribonucleosides (Gibco/Invitrogen, San Diego, Calif.) supplemented with 20% FCS. All the fibroblast cell lines and CHO-K1 cells were cultured in the same media supplemented respectively with 15% non-heat inactivated FCS or 10% heat inactivated FCS. Chimpanzee Fred and human […] EBV-transformed lymphoblasts were cultured in RPMI-1640 (Gibco/Invitrogen, San Diego, Calif.) supplemented with 10% heat inactivated FCS or 15% human serum. All of the cultures were maintained at 37° C., 5% CO2 atmosphere. In order to deplete any remaining Neu5Gc from FCS, the cells were split and cultured prior to Neu5Gc feeding experiments for at least 4 days in alpha-MEM supplemented with an adequate percentage of heat-inactivated premium human serum instead of FCS. The cells were then maintained under the same conditions during the whole feeding experiment. The human serum was heat inactivated at 56° C. for 30 min. before use.
as §1, with “At the end of the feeding, cells were washed with cold PBS, harvested either by scraping or with 2 mM EDTA for fibroblasts, and washed again with cold PBS prior to fractionation.” left out
Fractionation of the Labeled Cells—Washed cell pellets were sonicated into 500 μL of 20 mM sodium phosphate buffer or 20 mM Tris-HCl, pH 7.5, using 4×15 second pulses of a sonicator cell disrupter, model Some Dismembrator (Fisher Scientific, Hampton, N.J.) at a probe setting of 3. […] The pellet contained <5% of the incorporated sialic acid as determined using a radioactive tracer (data not shown.) The supernatant was therefore considered as the “total homogenate” fraction. A portion (20%) of the “total homogenate” fraction was taken for protein quantification and Sia analysis by DMB derivatization and HPLC analysis (as discussed below.) The remainder was centrifuged at 100,000×g for 1 h. […] All the Sias in these fractions were released with mild acid hydrolysis if necessary and then analyzed by HPLC after DMB derivatization. Protein quantification was performed on the total homogenate, membrane and soluble protein fractions by using the BCA protein assay kit from Pierce (Rockford, Ill.) In some experiments, the resulting data obtained for the Sia bound to the membrane fraction and to the soluble proteins were pooled and presented here as a High Molecular Weight (HMW) fraction. […]

[3] = system: Caco-2 cells; assay: Competition of free Neu5Ac with free Neu5Gc for incorporation into Caco-2 cells; format: cell-based, human; settings: 3 mM Neu5Gc for 3 days
Description: as §1
Fractionation of the Labeled Cells—Washed cell pellets were sonicated into 500 μL of 20 mM sodium phosphate buffer or 20 mM Tris-HCl, pH 7.5, using 4×15 second pulses of a sonicator cell disrupter, model Some Dismembrator (Fisher Scientific, Hampton, N.J.) at a probe setting of 3. The sonicate was centrifuged at 75×g for 15 min., and the pellet obtained consisted primarily of nuclei and unbroken cells. The pellet contained <5% of the incorporated sialic acid as determined using a radioactive tracer (data not shown.) The supernatant was therefore considered as the “total homogenate” fraction. A portion (20%) of the “total homogenate” fraction was taken for protein quantification and Sia analysis by DMB derivatization and HPLC analysis (as discussed below.) The remainder was centrifuged at 100,000×g for 1 h. The resulting pellet, called the “membrane” fraction, was then resuspended by sonication (15 sec.) in 200 μl of sodium acetate buffer, pH 5.5. The 100,000×g supernatant, called the “soluble” fraction was adjusted to 90% ethanol using absolute ice-cold ethanol, and placed overnight at −20° C. The flocculant precipitate, which represents the “soluble protein” fraction, was washed 3 times with 90% ice-cold ethanol and then resuspended in 200 μl of water. The supernatant fluid representing the cytosolic low molecular weight (LMW) fraction was dried and brought up in 100 μL with water prior to Sia analysis. All the Sias in these fractions were released with mild acid hydrolysis if necessary and then analyzed by HPLC after DMB derivatization. Protein quantification was performed on the total homogenate, membrane and soluble protein fractions by using the BCA protein assay kit from Pierce (Rockford, Ill.) In some experiments, the resulting data obtained for the Sia bound to the membrane fraction and to the soluble proteins were pooled and presented here as a High Molecular Weight (HMW) fraction.
Sialic Acid Release, DMB Derivatization and HPLC Analysis—The bound Sias from the total homogenate, membrane and soluble protein fractions were released using 2M acetic acid hydrolysis, 3 h. at 80° C. The released Sias, or free Sias, contained in the soluble LMW fraction were passed through a Microcon® YM-10 filter (Millipore, Bedford, Mass.) prior to DMB derivatization, which was done according to Hara et al., 1989. DMB-Sia derivatives from the different fractions were then analyzed by HPLC using a C18 column (Microsorb Mv-TM 100 A, Varian, Palo Alto, Calif.) Isocratic elution was achieved using 7% methanol, 8% acetonitrile in water during 50 min. at 0.9 ml/min flow. The eluant was monitored by fluorescence.
Quantification of Sias—For all HPLC chromatograms, the quantification of Sias was done by comparison with known quantities of DMB derivatized Neu5Gc and Neu5Ac used as standards and then reported in terms of pmoles of Sia. For total homogenate, membrane and cytosolic protein fractions, this number was expressed per mg of protein. Due to minor sample-to-sample variations in amounts and recoveries, the data in the Figures is presented as percent of Neu5Gc over total Sias, rather than as absolute amounts.

[4] = system: Caco-2 cells; assay: Neu5Gc and ManNGc feeding experiment, Caco-2 cells (fractionation, DMB-HPLC); format: cell-based; settings: Caco-2 cells fed 3 mM for 3 days, grown in human serum
Description: as §2, with “use. […]” for “use.”
Fractionation of the Labeled Cells—Washed cell pellets were sonicated into 500 μL of 20 mM sodium phosphate buffer or 20 mM Tris-HCl, pH 7.5, using 4×15 second pulses of a sonicator cell disrupter, model Some Dismembrator (Fisher Scientific, Hampton, N.J.) at a probe setting of 3. […] The pellet contained <5% of the incorporated sialic acid as determined using a radioactive tracer (data not shown.) The supernatant was therefore considered as the “total homogenate” fraction. A portion (20%) of the “total homogenate” fraction was taken for protein quantification and Sia analysis by DMB derivatization and HPLC analysis (as discussed below.) The remainder was centrifuged at 100,000×g for 1 h. […] All the Sias in these fractions were released with mild acid hydrolysis if necessary and then analyzed by HPLC after DMB derivatization. […]

O=C(CO)N[C@H]1[C@H]([C@H](O)[C@H](O)CO)OC(O)(C(=O)O)C[C@@H]1O (stereo partly drawn) [Neu5Gc, N-glycolylneuraminic acid] was tested, and the Neu5Gc incorporation efficiency [1] was “efficiency comparable to the Caco-2 cells”, the “Neu5Gc as percent of total Sia, TH fraction” value ([2]; non-fed baseline 57%) was 70% and the “Neu5Gc as percent of total Sia, HMW fraction” value ([2]; non-fed baseline 66%) was 72%. For the same molecule, the “Neu5Gc as percent of total Sia, LMW fraction” value ([2]; non-fed baseline 70%) was 84%, the “Neu5Gc as percent of total Sia, membrane-bound fraction” value ([3]; no added Neu5Ac) was 41% and the “Neu5Gc as percent of total Sia, TH” value ([3]; no added Neu5Ac (baseline incorporation)) was 56%. For the same molecule, the “Neu5Gc as percent of total Sia, cytosolic low molecular weight (LMW) fraction” value [4] was 70%, the “Neu5Gc as percent of total Sia, high molecular weight fraction (HMW)” value [4] was 46% and the “Neu5Gc as percent of total Sia, total homogenate (TH)” value [4] was 58%.
